In article PMC4061319 (Biotechnology for Biofuels, 2014):

Columns and labels:
[1] = target: T1, SdCBP (cellobiose phosphorylase from Saccharophagus degradans) (Saccharophagus degradans, UniProt Q21L49); experiment: initial rates of phosphorolysis from continuous G1P colorimetric assay, non-linear regression; type: biochemical; conditions: no xylose; 5 mM inorganic phosphate, 20 mM MES pH 6.0, 30°C, 10 nM enzyme
T1 construct: gene cep94A; CBP is a homodimer

[2] = target: T1, SdCBP (cellobiose phosphorylase from Saccharophagus degradans); experiment: competition assay of cellobiose phosphorolysis at […] xylose; type: biochemical; conditions: mixed inhibitor versus cellobiose; 5 mM inorganic phosphate, 20 mM MES pH 6.0, 30°C

T1 sequence (Q21L49 entry or part of it): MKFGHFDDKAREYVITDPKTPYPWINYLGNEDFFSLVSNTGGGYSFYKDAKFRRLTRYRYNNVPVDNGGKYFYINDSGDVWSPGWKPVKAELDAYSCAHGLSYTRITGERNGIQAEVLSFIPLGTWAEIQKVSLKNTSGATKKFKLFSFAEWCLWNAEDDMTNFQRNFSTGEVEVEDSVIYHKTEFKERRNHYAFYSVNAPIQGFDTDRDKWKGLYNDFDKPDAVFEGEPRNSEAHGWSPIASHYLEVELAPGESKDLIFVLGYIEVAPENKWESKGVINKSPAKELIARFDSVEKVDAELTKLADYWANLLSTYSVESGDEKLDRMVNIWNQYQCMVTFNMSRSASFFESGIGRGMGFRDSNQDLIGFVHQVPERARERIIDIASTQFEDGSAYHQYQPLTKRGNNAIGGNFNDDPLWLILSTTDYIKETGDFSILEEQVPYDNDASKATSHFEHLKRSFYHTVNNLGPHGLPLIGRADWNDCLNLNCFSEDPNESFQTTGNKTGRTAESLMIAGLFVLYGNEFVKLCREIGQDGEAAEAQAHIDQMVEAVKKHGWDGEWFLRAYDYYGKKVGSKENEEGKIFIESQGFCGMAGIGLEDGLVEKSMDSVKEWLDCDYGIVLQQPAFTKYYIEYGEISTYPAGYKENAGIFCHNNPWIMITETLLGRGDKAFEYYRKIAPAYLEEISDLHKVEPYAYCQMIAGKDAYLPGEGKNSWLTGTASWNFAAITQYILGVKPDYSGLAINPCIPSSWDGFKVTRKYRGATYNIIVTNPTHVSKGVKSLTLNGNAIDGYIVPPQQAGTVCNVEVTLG

Structure (SMILES) | KM,app [1] | competition assay of cellobiose phosphorolysis at 0, 2.5 and 5 mM xylose [2]
OC[C@H]1O[C@@H](O[C@H]2[C@H](O)[C@@H](O)C(O)O[C@@H]2CO)[C@H](O)[C@@H](O)[C@@H]1O (some centres unmarked) [cellobiose] | Initial rates of cellobiose phosphorolysis were calculated from the amount of G1P produced | 
OC1OC[C@@H](O)[C@H](O)[C@H]1O (some centres unmarked) [xylose] |  | identifying xylose as a mixed-inhibitor for the cellobiose phosphorolysis reaction
